# Data published in patent US12152012B2, “BRAG2 inhibitors and applications thereof” (CENTRE NATIONAL DE LA RECHERCHE SCIENTIFIQUE, priority 2018, dated 2024).
# Legend:
# [1] = Stability of DMSO stock solution (1H-NMR); format: physicochemical; settings: kept in DMSO for several months
# Sec7 domain of ARNO = target: T1, Sec7 domain of ARNO (Homo sapiens, UniProt Q99418); assay: Nucleotide exchange fluorescence kinetics in solution, Sec7 domain with truncated Arf1; format: biochemical; settings: 50 μM, no membranes
# T1 construct: ARNO^Sec7 (50-256), BIG1^Sec7 (691-889); made in house
# T1 sequence (Q99418 50-256): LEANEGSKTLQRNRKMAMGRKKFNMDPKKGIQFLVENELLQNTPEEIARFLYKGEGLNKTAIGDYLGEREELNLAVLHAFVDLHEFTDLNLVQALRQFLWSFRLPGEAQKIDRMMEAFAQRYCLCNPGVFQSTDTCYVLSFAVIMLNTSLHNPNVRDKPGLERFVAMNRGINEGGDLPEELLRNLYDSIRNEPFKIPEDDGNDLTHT
# Experimental: The effect of Bragsin1 on the GEF efficiency of representative human ArfGEFs was evaluated by fluorescence kinetics using highly purified recombinant Arf GTPases and ArfGEFs. In a first series of assays, the Sec7 domains of BIG1, a Golgi ArfGEF, and of ARNO, EFA6a and BRAG2, which function at the plasma membrane, were used. When tested in solution, Bragsin1 had no effect on the activation of Arf1 by any of these Sec7 domains (FIGS. 2a and 14). Separately, we reconstituted the activation of myristoylated Arf1 by the same ArfGEFs on liposomes using ArfGEF constructs that contain a membrane-binding domain (DCB-HUS domain for BIG1, PH domains for the other GEFs). […] BRAG2 activates several Arf isoforms, including the plasma membrane-located Arf6 isoform. […] Bragsin1 and Bragsin2 have the same IC50 towards BRAG2 ([…]) according to dose-response analysis, confirming that Bragsin1 and Bragsin2 can be used interchangeably (FIG. 2d). The specific inhibition of BRAG2 by Bragsin in vitro predicts that BRAG2 silencing by siRNA should yield the same phenotype as treatment by the small molecule. Silencing of BRAG2 induced the redistribution of TGN46 into tubular or punctate structures, which phenocopied the effects induced by Bragsin (FIGS. 2e, 17 and 18). […] Silencing of ARNO, which is located at the plasma membrane, had no effect on TGN46 distribution. Overexpression of BRAG2-mCherry rescued the dispersion of the TGN46 structure induced by Bragsin, which is consistent with the silencing experiments (FIG. 2f). Bragsin is a specific inhibitor of the ArfGEF BRAG2 in vitro and in cells according to these experiments. These oexperiments identify a mechanism of inhibition that requires the membrane to manifests itself. […]
# Nucleotide exchange kinetics were monitored by tryptophan fluorescence with excitation/emission wavelengths of 292/340 nm using a Cary Eclipse fluorimeter (Varian) at 37° C. and under continuous stirring as described in ^50,51. For specificity assays, 50 μM of Bragsin1 or 0.25% DMSO were incubated for 2 min at 37° C. in HKM buffer (50 mM HEPES pH 7.4, 120 mM potassium acetate, 1 mM MgCl2 and 1 mM DTT) with either 1 μM of N-terminally truncated Arf-GDP and 100 nM of indicated Sec7 domain (in solution) or 0.4 μM of ^myrArf1 in the presence of 100 μM of liposomes and 2 to 100 nM of ArfGEFs as described in (Benabdi, S. et al. Biochemistry 56, 5125-5133 (2017) and Peurois, F. et al. Biochem J 474, 1259-1272 (2017). Nucleotide exchange rates (kobs) were determined from monoexponential fits and means are given as the percentage of control activity±SD. […]
# yeast ArfGEF Sec7p = target: T2, yeast ArfGEF Sec7p (Saccharomyces cerevisiae, UniProt P11075); assay: Yeast chemogenomic screen; format: cell-based
# T2 construct: endogenous in cells; host or cells: yeast
# T2 sequence (P11075 whole entry): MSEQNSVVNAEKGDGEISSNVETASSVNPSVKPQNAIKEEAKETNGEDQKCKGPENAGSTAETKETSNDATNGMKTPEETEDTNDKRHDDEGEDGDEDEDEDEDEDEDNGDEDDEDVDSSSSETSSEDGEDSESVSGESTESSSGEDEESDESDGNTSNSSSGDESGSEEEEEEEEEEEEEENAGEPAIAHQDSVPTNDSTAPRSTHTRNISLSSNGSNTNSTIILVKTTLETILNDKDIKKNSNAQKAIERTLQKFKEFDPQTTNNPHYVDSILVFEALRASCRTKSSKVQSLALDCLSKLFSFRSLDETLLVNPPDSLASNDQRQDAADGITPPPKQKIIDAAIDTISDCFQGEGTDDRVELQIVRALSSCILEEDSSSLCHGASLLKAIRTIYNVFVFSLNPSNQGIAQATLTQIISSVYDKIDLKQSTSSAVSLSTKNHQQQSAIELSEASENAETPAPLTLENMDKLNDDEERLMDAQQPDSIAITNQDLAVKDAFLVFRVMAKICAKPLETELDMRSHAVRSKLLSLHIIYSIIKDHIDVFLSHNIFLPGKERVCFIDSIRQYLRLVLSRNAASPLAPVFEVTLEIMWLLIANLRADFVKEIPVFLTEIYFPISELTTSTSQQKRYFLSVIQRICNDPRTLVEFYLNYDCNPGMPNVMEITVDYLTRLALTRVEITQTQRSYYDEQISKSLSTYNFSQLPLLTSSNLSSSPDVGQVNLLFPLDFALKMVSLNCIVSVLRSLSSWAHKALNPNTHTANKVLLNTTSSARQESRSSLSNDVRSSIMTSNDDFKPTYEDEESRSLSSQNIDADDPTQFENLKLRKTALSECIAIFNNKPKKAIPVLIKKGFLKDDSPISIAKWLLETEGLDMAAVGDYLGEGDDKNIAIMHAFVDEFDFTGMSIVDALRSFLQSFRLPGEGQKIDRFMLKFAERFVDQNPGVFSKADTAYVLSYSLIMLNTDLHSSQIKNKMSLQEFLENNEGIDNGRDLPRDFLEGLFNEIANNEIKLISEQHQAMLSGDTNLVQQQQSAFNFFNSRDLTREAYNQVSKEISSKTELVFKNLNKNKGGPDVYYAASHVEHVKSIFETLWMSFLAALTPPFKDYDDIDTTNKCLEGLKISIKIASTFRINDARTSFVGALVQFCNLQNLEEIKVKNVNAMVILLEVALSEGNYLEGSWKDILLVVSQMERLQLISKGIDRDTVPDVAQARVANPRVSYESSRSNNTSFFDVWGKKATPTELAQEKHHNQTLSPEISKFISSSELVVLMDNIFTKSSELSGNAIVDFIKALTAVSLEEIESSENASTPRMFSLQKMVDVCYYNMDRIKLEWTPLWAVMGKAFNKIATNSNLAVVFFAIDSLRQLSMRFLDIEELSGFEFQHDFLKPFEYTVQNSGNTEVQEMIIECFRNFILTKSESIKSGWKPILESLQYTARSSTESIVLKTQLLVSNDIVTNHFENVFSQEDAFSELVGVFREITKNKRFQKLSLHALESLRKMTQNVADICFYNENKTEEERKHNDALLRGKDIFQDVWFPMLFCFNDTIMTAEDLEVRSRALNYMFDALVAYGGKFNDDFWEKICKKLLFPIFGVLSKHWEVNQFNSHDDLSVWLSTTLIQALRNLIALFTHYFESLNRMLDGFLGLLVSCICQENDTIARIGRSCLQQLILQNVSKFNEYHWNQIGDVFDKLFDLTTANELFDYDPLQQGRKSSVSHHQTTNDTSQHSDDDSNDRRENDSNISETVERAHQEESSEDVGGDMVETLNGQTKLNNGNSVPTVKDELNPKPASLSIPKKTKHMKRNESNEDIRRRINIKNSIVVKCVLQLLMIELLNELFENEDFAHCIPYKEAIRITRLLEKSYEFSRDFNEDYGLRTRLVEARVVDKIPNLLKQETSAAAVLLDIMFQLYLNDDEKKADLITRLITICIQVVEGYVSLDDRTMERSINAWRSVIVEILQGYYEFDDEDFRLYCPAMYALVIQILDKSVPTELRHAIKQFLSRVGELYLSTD
compound,measurement,setting,value
"Cc1ccc2oc(C(F)(F)F)cc(=O)c2c1[N+](=O)[O-] [Bragsin1, 6-methyl-5-nitro-2-(trifluoromethyl)-4H-chromen-4-one]",Stability in DMSO stock solution by 1H-NMR,[1],completely decomposed
same,Effect on activation of Arf1 by Sec7 domain in solution,Sec7 domain of ARNO,no effect
same,Effect on function of yeast ArfGEF Sec7p,yeast ArfGEF Sec7p,perturbs the function
